One data set deals with human GPR40 receptor (Homo sapiens, UniProt O14842). The experiment in a line: IP1 accumulation measurements using the IPOne assay system. In kind it is cell-based. The conditions noted are these: 1321N1 cells stably expressing human GPR40 receptor, stimulation 1 h at 37° C. As for the experimental part: IP1 accumulation measurements using the IPOne assay system—1321N1 cells stably expressing human GPR40 receptor (Euroscreen, Belgium) are seeded 24 h before the assay in white 384-well plates in culture medium containing 10% FCS, 1% Na-Pyruvate and 400 μg/mL G418. IPi is assayed according to the manufacturer's description (Cisbio Bioassays, France). In brief, the assay is started by substitution of the culture medium by stimulation buffer (Hepes 10 mM, CaCl2 1 mM, MgCl2 0.5 mM, KCl 4.2 mM, NaCl 146 mM, glucose 5.5 mM and LiCl 50 mM, pH 7.4). Cells are stimulated for 1 h at 37° C., 5% CO2 by addition of the compounds that are diluted in stimulation buffer containing LiCl. Assays are stopped by adding HTRF-conjugates (IP1-d2 and Anti-IP1 cryptate Tb) and lysis buffer, provided by the manufacturer. After an incubation time of 1 h at room temperature plates are measured using an EnVision™, Perkin Elmer. The obtained fluorescence ratios at 665/615 […] are then used to calculate the pEC50 values using Assay Explorer 3.3 Software (Accelrys, Inc.) by interpolation using an IP1 reference curve and subsequent sigmoidal curve fitting allowing for a variable hill slope.

Data set [1] in a line: Aqueous solubility in buffer versus acetonitrile/water (1/1), LC-UV. In kind it is physicochemical. Conditions: kinetic from dmso stock, buffer pH 2.2, 24 h shaking, 2.5% DMSO, ">" if more than 90% dissolved. As for the experimental part:
The aqueous solubility of the compounds of the invention is determined by comparing the amount dissolved in buffer to the amount in an acetonitrile/water (1/1) solution. Starting from a 10 mM DMSO stock solution aliquots are diluted with acetonitrile/water (1/1) or buffer, respectively. After 24 h of shaking, the solutions are filtrated and analyzed by LC-UV. The amount dissolved in buffer is compared to the amount in the acetonitrile solution.
Solubility is usually being measured from 0.001 to 0.125 mg/mL at a DMSO concentration of 2.5%. If more than 90% of the compound is dissolved in buffer, the value is marked with “>”.

Each structure is given as a SMILES string. Converted amounts (≈) assume the structure as drawn.

Sequence of human GPR40 receptor (O14842 whole entry): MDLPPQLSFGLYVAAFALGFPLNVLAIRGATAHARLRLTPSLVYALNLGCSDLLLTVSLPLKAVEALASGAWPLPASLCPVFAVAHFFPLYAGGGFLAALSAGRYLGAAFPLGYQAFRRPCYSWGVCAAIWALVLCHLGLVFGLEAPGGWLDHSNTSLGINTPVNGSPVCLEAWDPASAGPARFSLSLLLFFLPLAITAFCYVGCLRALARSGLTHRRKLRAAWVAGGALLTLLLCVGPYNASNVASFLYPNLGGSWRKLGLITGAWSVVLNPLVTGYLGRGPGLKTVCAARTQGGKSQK

One may read the EC50 as the concentration that produces a half-maximal response. Broadly, the solubility is the dissolved amount per volume that the medium holds. A low value points to a poorly soluble substance. Compound `Cc1cc(O[C@@H]2CCOC2)cc(C)c1-c1cc(CNc2ccc([C@H]3C[C@@H]3C(=O)O)cn2)c(F)cc1F` [Example 80] registered an EC50 at human GPR40 receptor of 59 nM. In data set [1], the concentration in solution (solubility at 24 h) came to 106 µg/mL (≈ 214 µM).
Turning to `Cc1cc(-c2nnn(C)n2)cc(C)c1-c1ccc(F)c2c1CC[C@H]2Oc1ccc([C@H]2C[C@@H]2C(=O)O)cc1` [WO 2013/178575 Example 45, reference compound], the solubility at 24 h in data set [1] was less than 1 µg/mL.
Turning to `COc1cc(C)c(-c2cc(CNc3ccc([C@H]4C[C@@H]4C(=O)O)cn3)c(F)cc2F)c(C)c1` [Example 68], the EC50 on human GPR40 receptor came to 59 nM. In addition, the solubility at 24 h in data set [1] was greater than 120 µg/mL.
The matching figures for `Cc1cc(C#N)cc(C)c1-c1ccc(F)c(CNc2ccc([C@H]3C[C@@H]3C(=O)O)cn2)c1` [Example 35]: 137 nM and 86 µg/mL (≈ 207 µM).
`COc1cc(C)c(-c2ccc(F)c(CNc3ccc([C@H]4C[C@@H]4C(=O)O)cn3)c2)c(C)c1` [Example 26] gave an EC50 on human GPR40 receptor of 79 nM. Besides, in data set [1], the solubility at 24 h came to 91 µg/mL (≈ 216 µM).
On to `Cc1cc(-c2nnn(C)n2)cc(C)c1-c1cc(CNc2ccc([C@H]3C[C@@H]3C(=O)O)cn2)c(F)cc1F` [Example 90], for which a half-maximal response on human GPR40 receptor (EC50) required 8 nM. Besides, the solubility at 24 h in data set [1] is 89 µg/mL (≈ 181 µM).
`Cc1cc(O[C@H]2CCOC2)cc(C)c1-c1ccc(F)c(CNc2ccc([C@H]3C[C@@H]3C(=O)O)cn2)c1` [Example 38] yielded an EC50 at human GPR40 receptor of 94 nM. The compound further registered a solubility at 24 h in data set [1] of 99 µg/mL (≈ 208 µM).
The matching figures for `Cc1cccc(C)c1-c1cc(CNc2ccc([C@H]3C[C@@H]3C(=O)O)cn2)c(F)cc1F` [Example 61]: 36 nM and 42 µg/mL (≈ 103 µM).
The matching figures for `Cc1ccc(Cl)c(-c2ccc(F)c(CNc3ccc([C@H]4C[C@@H]4C(=O)O)cn3)c2)c1Cl` [Example 25]: 41 nM and 83 µg/mL (≈ 186 µM).
At human GPR40 receptor, `Cc1cc(OCCC(C)(C)O)cc(C)c1-c1ccc(F)c(CNc2ccc([C@H]3C[C@@H]3C(=O)O)cn2)c1` [Example 1] displayed an EC50 of 45 nM. In addition, in data set [1], the concentration in solution (solubility at 24 h) was 87 µg/mL (≈ 177 µM).
The matching figures for `Cc1cc(C#N)cc(C)c1-c1cc(CNc2ccc([C@H]3C[C@@H]3C(=O)O)cn2)c(F)cc1F` [Example 77]: 83 nM and 97 µg/mL (≈ 224 µM).
For `Cc1cc(-c2cc(=O)n(C)cn2)cc(C)c1-c1ccc(F)c(CNc2ccc([C@H]3C[C@@H]3C(=O)O)cn2)c1` [Example 43], in that order: 54 nM and 107 µg/mL (≈ 215 µM).
For `Cc1cnc(-c2cc(C)c(-c3cc(CNc4ccc([C@H]5C[C@@H]5C(=O)O)cn4)c(F)cc3F)c(C)c2)nc1` [Example 95], in that order: 11 nM and 88 µg/mL (≈ 176 µM).
As to `COc1cc(-c2cc(C)c(-c3cc(CNc4ccc([C@H]5C[C@@H]5C(=O)O)cn4)c(F)cc3F)c(C)c2)ccn1` [Example 99], at human GPR40 receptor, the EC50 stood at 8 nM. Moreover, the concentration in solution in data set [1] (solubility at 24 h) came to 97 µg/mL (≈ 188 µM).
The matching figures for `COc1cc(OC)c(-c2ccc(F)c(CNc3ccc([C@H]4C[C@@H]4C(=O)O)cn3)c2)c(OC)c1` [Example 30]: 877 nM and 112 µg/mL (≈ 248 µM).
The matching figures for `Cc1cc(OCC2(O)CCOCC2)cc(C)c1-c1ccc(F)c(CNc2ccc([C@H]3C[C@@H]3C(=O)O)cn2)c1` [Example 55]: 220 nM and 122 µg/mL (≈ 234 µM).
For `Cc1cc(OCCC(C)(C)O)cc(C)c1-c1cc(CNc2ccc([C@H]3C[C@@H]3C(=O)O)cn2)c(F)cc1F` [Example 2], in that order: 42 nM and 83 µg/mL (≈ 163 µM).
In the case of `Cc1cc(OCC2(O)CCS(=O)(=O)CC2)cc(C)c1-c1cc(CNc2ccc([C@H]3C[C@@H]3C(=O)O)cn2)c(F)cc1F` [Example 100], the EC50 on human GPR40 receptor is 101 nM.
On human GPR40 receptor, `CCc1cccc(CC)c1-c1cc(CNc2ccc([C@H]3C[C@@H]3C(=O)O)cn2)c(F)cc1F` [Example 93] came in with an EC50 of 72 nM. For the same compound, the solubility at 24 h in data set [1] was determined as 82 µg/mL (≈ 188 µM).
On human GPR40 receptor, `CC(C)c1ccccc1-c1cc(CNc2ccc([C@H]3C[C@@H]3C(=O)O)cn2)c(F)cc1F` [Example 96] registered an EC50 of 114 nM.
`Cc1cc(OC2CCOCC2)cc(C)c1-c1ccc(F)c(CNc2ccc([C@H]3C[C@@H]3C(=O)O)cn2)c1` [Example 42] had an EC50 on human GPR40 receptor of 100 nM. The same compound had a solubility at 24 h in data set [1] of 87 µg/mL (≈ 177 µM).
Compound `N#CC1(c2ccccc2-c2ccc(F)c(CNc3ccc([C@H]4C[C@@H]4C(=O)O)cn3)c2)CC1` [Example 32] displayed an EC50 at human GPR40 receptor of 1940 nM. This lies in the single-digit micromolar range.
Same read-out and setting: with `COc1cc(OC)c(Cl)c(-c2ccc(F)c(CNc3ccc([C@H]4C[C@@H]4C(=O)O)cn3)c2)c1Cl` [Example 33] the figure was 128 nM.
Compound `O=C(O)[C@H]1C[C@@H]1c1ccc(NCc2ccc(C(F)(F)F)c(-c3ccc(OCC4CC4)cc3)c2)nc1` [Example 7, (1S,2S)-2-{6-[(4′-Cyclopropylmethoxy-6-trifluoromethyl-biphenyl-3-ylmethyl)-amino]-pyridin-3-yl}-cyclopropanecarboxylic acid] had an EC50 at human GPR40 receptor of 34 nM. The solubility at 24 h in data set [1] came out at 30 µg/mL (≈ 62.2 µM).
For `COc1cc(F)c(-c2cc(CNc3ccc([C@H]4C[C@@H]4C(=O)O)cn3)c(F)cc2F)c(F)c1` [Example 62], the EC50 on human GPR40 receptor came to 668 nM. In other words, the sub-micromolar range.
On the same count and under the same terms, with `Cc1cc(CO)cc(C)c1-c1cc(CNc2ccc([C@H]3C[C@@H]3C(=O)O)cn2)c(F)cc1F` [Example 82] the figure was 236 nM.
As for `Cc1cc(OCc2ccccc2)cc(C)c1-c1ccc(F)c(CNc2ccc([C@H]3C[C@@H]3C(=O)O)cn2)c1` [Example 47], the EC50 at human GPR40 receptor stood at 107 nM.
On the same count and under the same terms, to `N#Cc1cccc(C#N)c1-c1ccc(F)c(CNc2ccc([C@H]3C[C@@H]3C(=O)O)cn2)c1` [Example 23] belongs greater than 10000 nM.
With `Nc1cc(F)c(-c2cc(CNc3ccc([C@H]4C[C@@H]4C(=O)O)cn3)c(F)cc2F)c(F)c1` [Example 70], the EC50 at human GPR40 receptor came to 3630 nM.
The same measure, in the same setting: with `COc1c(F)c(F)c(-c2ccc(F)c(CNc3ccc([C@H]4C[C@@H]4C(=O)O)cn3)c2)c(F)c1F` [Example 22] the figure was 477 nM; with `Cc1cc(OCC2CCOC2)cc(C)c1-c1cc(CNc2ccc([C@H]3C[C@@H]3C(=O)O)cn2)c(F)cc1F` (stereo partly drawn) [Example 78], 5 nM.
Still for that read-out and setting: to `Cc1cc(-c2cc(=O)n(C)cn2)cc(C)c1-c1cc(CNc2ccc([C@H]3C[C@@H]3C(=O)O)cn2)c(F)cc1F` [Example 85] belongs 25 nM; to `O=C(O)[C@H]1C[C@@H]1c1ccc(NCc2ccc(C(F)(F)F)c(-c3ccc(OC(F)(F)F)cc3)c2)nc1` [Example 6, (1S,2S)-2-{6-[(4′-Trifluoromethoxy-6-trifluoromethyl-biphenyl-3-ylmethyl)-amino]-pyridin-3-yl}-cyclopropanecarboxylic Acid], 38 nM; to `COc1cc(F)c(-c2ccc(F)c(CNc3ccc([C@H]4C[C@@H]4C(=O)O)cn3)c2)c(F)c1` [Example 19], 2100 nM.
`O=C(O)[C@H]1C[C@@H]1c1ccc(NCc2cc(-c3c(F)cc(F)cc3F)c(F)cc2F)nc1` [Example 81] had an EC50 at human GPR40 receptor of 491 nM.
Same read-out and setting: with `Cc1cc(-c2ccnn2C)cc(C)c1-c1ccc(F)c(CNc2ccc([C@H]3C[C@@H]3C(=O)O)cn2)c1` [Example 50] the figure was 25 nM; with `Cc1cc(OCCCS(C)(=O)=O)cc(C)c1-c1ccc(F)c(CNc2ccc([C@H]3C[C@@H]3C(=O)O)cn2)c1` [Example 12], greater than 10000 nM.
Still for that read-out and setting: to `CC(C)c1ccccc1-c1ccc(F)c(CNc2ccc([C@H]3C[C@@H]3C(=O)O)cn2)c1` [Example 54] belongs 317 nM; to `Cc1cc(C(N)=O)cc(C)c1-c1cc(CNc2ccc([C@H]3C[C@@H]3C(=O)O)cn2)c(F)cc1F` [Example 76], 340 nM.
Still for that read-out and setting: with `O=C(O)[C@H]1C[C@@H]1c1ccc(NCc2cc(-c3c(F)cccc3F)c(F)cc2F)nc1` [Example 63] the figure was 931 nM.
For `Cc1cc(OCCC(C)(C)O)cc(C)c1-c1cc(CNc2ccc([C@H]3C[C@@H]3C(=O)O)cn2)ccc1C(F)(F)F` [Example 5, (1S,2S)-2-(6-{[4′-(3-Hydroxy-3-methyl-butoxy)-2′,6′-dimethyl-6-trifluoromethyl-biphenyl-3-ylmethyl]-amino}-pyridin-3-yl)-cyclopropanecarboxylic Acid], the EC50 at human GPR40 receptor came to 12 nM. Compared with the last compound, the EC50 is about 78-fold lower.
Same read-out and setting: to `Cc1cc(OCCCS(C)(=O)=O)cc(C)c1-c1cccc(CNc2ccc([C@H]3C[C@@H]3C(=O)O)cn2)c1` [Example 8, (1S,2S)-2-(6-{[4′-(3-Methanesulfonyl-propoxy)-2′,6′-dimethyl-biphenyl-3-ylmethyl]-amino}-pyridin-3-yl)-cyclopropanecarboxylic Acid] belongs 50 nM; to `COc1cc(OC)c(-c2cc(CNc3ccc([C@H]4C[C@@H]4C(=O)O)cn3)c(F)cc2F)c(OC)c1` [Example 72], 838 nM; to `Cc1cc(C(N)=O)cc(C)c1-c1ccc(F)c(CNc2ccc([C@H]3C[C@@H]3C(=O)O)cn2)c1` [Example 34], 612 nM.

These data come from patent US10538490B2, “Benzylaminopyridylcyclopropanecarboxylic acids, pharmaceutical compositions and uses thereof” (Boehringer Ingelheim International GmbH, priority 2016, dated 2020).
